We go through 45 molecules from patent US11319315B2, “Cyclohexyl acid triazole azoles as LPA antagonists” (BRISTOL-MYERS SQUIBB COMPANY, priority 2017, dated 2022).

In the assay the target is T1, human LPA1 (Homo sapiens, UniProt Q92633).
T1 construct: expressed in transfected cells; host or cells: Chinese hamster ovary (CHO) cells
Description: LPA1 functional antagonist assay (LPA-induced calcium flux in CHO cells overexpressing human LPA1). To be noted: inhibition of calcium flux induced by 10 nM LPA, CHO cells overexpressing human LPA1; read-out: hLPA1 IC50. It counts as cell-based. How it is done:
The effectiveness of compounds of the present invention as LPA1 inhibitors can be determined in an LPA1 functional antagonist assay as follows:
Chinese hamster ovary cells overexpressing human LPA1 were plated overnight (15,000 cells/well) in poly-D-lysine coated 384-well microplates (Greiner bio-one, Cat #781946) in DMEM/F12 medium (Gibco, Cat #11039). Following overnight culture, cells were loaded with calcium indicator dye (AAT Bioquest Inc, Cat #34601) for 30 minutes at 37° C. The cells were then equilibrated to room temperature for 30 minutes before the assay. Test compounds solubilized in DMSO were transferred to 384 well non-binding surface plates (Corning, Cat #3575) using the Labcyte Echo acoustic dispense and diluted with assay buffer [IX HBSS with calcium/magnesium (Gibco Cat #14025-092), 20 mM HEPES (Gibco Cat #15630-080) and 0.1% fatty acid free BSA (Sigma Cat #A9205)] to a final concentration of 0.5% DMSO. Diluted compounds were added to the cells by FDSS6000 (Hamamatsu) at final concentrations ranging from 0.08 nM to 5 μM. and were then incubated for 20 min at room temperature at which time LPA (Avanti Polar Lipids Cat #857130C) was added at final concentrations of 10 nM to stimulate the cells. The compound IC50 value was defined as the concentration of test compound which inhibited 50% of the calcium flux induced by LPA alone. IC50 values were determined by fitting data to a 4-parameter logistic equation (GraphPad Prism, San Diego Calif.).

pIC50: −log10 of the molar value. Where a name gives a salt, the structure may show the parent alone.

T1 sequence (Q92633 whole entry): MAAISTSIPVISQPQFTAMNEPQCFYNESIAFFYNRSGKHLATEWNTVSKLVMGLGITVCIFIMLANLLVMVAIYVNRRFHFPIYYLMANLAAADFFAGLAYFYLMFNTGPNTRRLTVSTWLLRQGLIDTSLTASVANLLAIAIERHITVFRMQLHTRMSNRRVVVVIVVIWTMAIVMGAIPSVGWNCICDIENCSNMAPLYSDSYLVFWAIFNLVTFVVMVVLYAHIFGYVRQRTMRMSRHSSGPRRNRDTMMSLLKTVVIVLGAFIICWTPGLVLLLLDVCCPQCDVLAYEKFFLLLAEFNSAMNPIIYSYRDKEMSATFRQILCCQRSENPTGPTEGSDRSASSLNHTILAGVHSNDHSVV

`Cc1nc(-c2nnn(C)c2CNc2cn(CC(C)C)nn2)ccc1O[C@H]1CCC[C@H](C(=O)O)C1` [Example 23, (1 S,3 S)-3-((6-(5-(((1-isobutyl-1H-1,2,3-triazol-4-yl)amino)methyl)-1-methyl-1H-1,2,3-triazol-4-yl)-2-methylpyridin-3-yl)oxy)cyclohexane-1-carboxylic acid]: the pIC50 is 6.36.
As for `Cc1nc(-c2nnn(C)c2CNc2cnn(CC3CCC3)n2)ccc1O[C@H]1CCC[C@H](C(=O)O)C1` [Example 24, (1 S,3 S)-3-((6-(5-(((2-(cyclobutylmethyl)-2H-1,2,3-triazol-4-yl)amino)methyl)-1-methyl-1H-1,2,3-triazol-4-yl)-2-methylpyridin-3-yl)oxy)cyclohexane-1-carboxylic acid], the pIC50 is 7.48.
Turning to `Cc1nc(-c2nnn(C)c2CNc2ncn(CC(C)C)n2)ccc1O[C@H]1CCC[C@H](C(=O)O)C1` [Example 25, (1 S,3 S)-3-((6-(5-(((1-isobutyl-1H-1,2,4-triazol-3-yl)amino)methyl)-1-methyl-1H-1,2,3-triazol-4-yl)-2-methylpyridin-3-yl)oxy)cyclohexane-1-carboxylic acid], the negative logarithm of the IC50 (pIC50) was 6.90.
Consider `Cc1nc(-c2nnn(C)c2CNc2nc(C)c(C)s2)ccc1O[C@H]1CCC[C@H](C(=O)O)C1` [Example 26], for which the negative logarithm of the IC50 (pIC50) was 5.44.
As to `Cc1nc(-c2nnn(C)c2CNc2cnn(C3CCCCC3)n2)ccc1O[C@H]1CCC[C@H](C(=O)O)C1` [Example 27], the negative logarithm of the IC50 (pIC50) is 7.00.
For the molecule `Cc1nc(-c2nnn(C)c2CNc2cnn(C3CCCC3)n2)ccc1O[C@H]1CCC[C@H](C(=O)O)C1` [Example 28], the pIC50 is 7.41.
Take `CCCn1ncc(NCc2c(-c3ccc(O[C@H]4CCC[C@H](C(=O)O)C4)c(C)n3)nnn2C)n1` [Example 29]: the pIC50 is 6.53.
In the case of `Cc1nc(-c2nnn(C)c2CNc2cnn(C3CCC3)n2)ccc1O[C@H]1CCC[C@H](C(=O)O)C1` [Example 30], the pIC50 is 7.04.
`Cc1nc(-c2nnn(C)c2CNc2cnn(CC3CC3)n2)ccc1O[C@H]1CCC[C@H](C(=O)O)C1` [Example 31]: the negative logarithm of the IC50 (pIC50) was 7.27.
Regarding `Cc1nc(-c2nnn(C)c2CNc2cnn(-c3ccccc3)n2)ccc1O[C@H]1CCC[C@H](C(=O)O)C1` [Example 32], the pIC50 was 8.00.
On to `Cc1nc(-c2nnn(C)c2CNc2cnn(-c3ccc(F)cc3)n2)ccc1O[C@H]1CCC[C@H](C(=O)O)C1` [Example 33, (1 S,3 S)-3-((6-(5-(((2-(4-fluorophenyl)-2H-1,2,3-triazol-4-yl)amino)methyl)-1-methyl-1H-1,2,3-triazol-4-yl)-2-methylpyridin-3-yl)oxy)cyclohexane-1-carboxylic acid], for which the pIC50 was 7.08.
Turning to `Cc1nc(-c2nnn(C)c2CNc2ncn(Cc3ccccc3)n2)ccc1O[C@H]1CCC[C@H](C(=O)O)C1` [Example 34], the negative-log IC50 (pIC50) was 6.48.
In the case of `CCCn1cnc(NCc2c(-c3ccc(O[C@H]4CCC[C@H](C(=O)O)C4)c(C)n3)nnn2C)n1` [Example 35], the pIC50 is 6.51.
With `Cc1nc(-c2nnn(C)c2CNc2ncn(C3CCCCC3)n2)ccc1O[C@H]1CCC[C@H](C(=O)O)C1` [Example 36] the figure was 6.83.
For the molecule `Cc1nc(-c2nnn(C)c2CNc2nc(C)n(-c3ccccc3)n2)ccc1O[C@H]1CCC[C@H](C(=O)O)C1` [Example 37], the negative logarithm of the IC50 (pIC50) is 7.34.
For `Cc1nc(-c2nnn(C)c2CNc2ncn(-c3ccccc3)n2)ccc1O[C@H]1CCC[C@H](C(=O)O)C1` [Example 38], the pIC50 was 7.47.
Take `Cc1nc(-c2nnn(C)c2CNc2ncn(-c3ccc(F)cc3)n2)ccc1O[C@H]1CCC[C@H](C(=O)O)C1` [Example 39]: the negative-log IC50 (pIC50) is 7.21.
For `Cc1nc(-c2nnn(C)c2CNc2ncn(-c3cc(F)cc(F)c3)n2)ccc1O[C@H]1CCC[C@H](C(=O)O)C1` [Example 40], the negative-log IC50 (pIC50) is 7.34.
Turning to `Cc1nc(-c2nnn(C)c2Cn2nc(Cc3ccccc3)oc2=N)ccc1O[C@H]1CCC[C@H](C(=O)O)C1` [Example 41, (1S,3S)-3-((6-(5-((5-Benzyl-2-imino-1,3,4-oxadiazol-3(2H)-yl)methyl)-1-methyl-1H-1,2,3-triazol-4-yl)-2-methylpyridin-3-yl)oxy)cyclohexane-1-carboxylic acid, bis TFA salt], the pIC50 is 6.66.
With `Cc1nc(-c2nnn(C)c2CNc2nnc(C(C)C)o2)ccc1O[C@H]1CCC[C@H](C(=O)O)C1` [Example 42, (1S,3S)-3-((6-(5-(((5-Isopropyl-1,3,4-oxadiazol-2-yl)amino)methyl)-1-methyl-1H-1,2,3-triazol-4-yl)-2-methylpyridin-3-yl)oxy)cyclohexane-1-carboxylic acid, 2 TFA salt] the figure was 5.85; with `CCCCc1noc(NCc2c(-c3ccc(O[C@H]4CCC[C@H](C(=O)O)C4)c(C)n3)nnn2C)n1` [Example 43, (1S,3S)-3-((6-(5-(((3-Butyl-1,2,4-oxadiazol-5-yl)amino)methyl)-1-methyl-1H-1,2,3-triazol-4-yl)-2-methylpyridin-3-yl)oxy)cyclohexane-1-carboxylic acid, bis TFA salt], 7.12; with `Cc1nc(-c2nnn(C)c2CNc2nc(C3CCC3)no2)ccc1O[C@H]1CCC[C@H](C(=O)O)C1` [Example 44, (1S,3S)-3-((6-(5-(((3-Cyclobutyl-1,2,4-oxadiazol-5-yl)amino)methyl)-1-methyl-1H-1,2,3-triazol-4-yl)-2-methylpyridin-3-yl)oxy)cyclohexane-1-carboxylic acid, 2 TFA salt], 6.98.
Consider `Cc1nc(-c2nnn(C)c2Cn2nc(C3CCCC3)oc2=N)ccc1O[C@H]1CCC[C@H](C(=O)O)C1` [Example 45], for which the negative logarithm of the IC50 (pIC50) is 6.64.
Regarding `Cc1nc(-c2nnn(C)c2Cn2nc(C3CCC3)oc2=N)ccc1O[C@H]1CCC[C@H](C(=O)O)C1` [Example 46], the pIC50 is 6.86.
In the case of `Cc1nc(-c2nnn(C)c2CNc2nnc(C(F)(F)F)o2)ccc1O[C@H]1CCC[C@H](C(=O)O)C1` [Example 47] it was 6.23; in that of `Cc1nc(-c2nnn(C)c2CNc2nnc(C3CCCC3)o2)ccc1O[C@H]1CCC[C@H](C(=O)O)C1` [Example 48], 6.68.
Regarding `Cc1nc(-c2nnn(C)c2CNc2nnc(-c3ccccc3)o2)ccc1O[C@H]1CCC[C@H](C(=O)O)C1` [Example 49], the pIC50 was 6.74.
With `Cc1nc(-c2nnn(C)c2CNc2nnc(Cc3ccccc3)o2)ccc1O[C@H]1CCC[C@H](C(=O)O)C1` [Example 50], the negative-log IC50 (pIC50) was 7.02.
Consider `Cc1nc(-c2nnn(C)c2CNc2nnc(C3CCC3)o2)ccc1O[C@H]1CCC[C@H](C(=O)O)C1` [Example 51], for which the pIC50 was 7.23.
In the case of `CCCc1nnc(NCc2c(-c3ccc(O[C@H]4CCC[C@H](C(=O)O)C4)c(C)n3)nnn2C)o1` [Example 52] it was 6.40.
Turning to `CCCCc1nnc(NCc2c(-c3ccc(O[C@H]4CCC[C@H](C(=O)O)C4)c(C)n3)nnn2C)o1` [Example 53], the pIC50 is 6.53.
Take `Cc1nc(-c2nnn(C)c2CNc2nnc(CC(C)C)o2)ccc1O[C@H]1CCC[C@H](C(=O)O)C1` [Example 54]: the pIC50 is 6.72.
As for `Cc1nc(-c2nnn(C)c2CNc2nnc(CCC(C)C)o2)ccc1O[C@H]1CCC[C@H](C(=O)O)C1` [Example 55], the negative logarithm of the IC50 (pIC50) was 7.35.
Take `Cc1nc(-c2nnn(C)c2CNc2nnc(CC3CC3)o2)ccc1O[C@H]1CCC[C@H](C(=O)O)C1` [Example 56]: the pIC50 is 6.87.
With `Cc1nc(-c2nnn(C)c2CNc2nnc(C3CCCCC3)o2)ccc1O[C@H]1CCC[C@H](C(=O)O)C1` [Example 57] the figure was 6.69; with `Cc1nc(-c2nnn(C)c2CNc2nc(C3CC3)no2)ccc1O[C@H]1CCC[C@H](C(=O)O)C1` [Example 58], 6.50.
`Cc1nc(-c2nnn(C)c2CNc2nc(C(C)C)no2)ccc1O[C@H]1CCC[C@H](C(=O)O)C1` [Example 59]: the pIC50 is 6.31.
As to `Cc1nc(-c2nnn(C)c2CNc2nc(C(C)(C)C)no2)ccc1O[C@H]1CCC[C@H](C(=O)O)C1` [Example 60], the pIC50 is 6.32.
In the case of `Cc1nc(-c2nnn(C)c2CNc2nc(-c3ccccc3)no2)ccc1O[C@H]1CCC[C@H](C(=O)O)C1` [Example 61] it was 7.59; in that of `Cc1nc(-c2nnn(C)c2CNc2nc(C3CCCC3)no2)ccc1O[C@H]1CCC[C@H](C(=O)O)C1` [Example 62], 7.37.
For `Cc1nc(-c2nnn(C)c2CNc2nc(Cc3ccccc3)no2)ccc1O[C@H]1CCC[C@H](C(=O)O)C1` [Example 63], the pIC50 is 7.42.
Take `Cc1nc(-c2nnn(C)c2CNc2nc(CC3CC3)no2)ccc1O[C@H]1CCC[C@H](C(=O)O)C1` [Example 64]: the negative-log IC50 (pIC50) is 6.98.
As for `Cc1nc(-c2nnn(C)c2CNc2noc(-c3ccccc3)n2)ccc1O[C@H]1CCC[C@H](C(=O)O)C1` [Example 65], the pIC50 is 7.64.
In the case of `CCCCc1nc(NCc2c(-c3ccc(O[C@H]4CCC[C@H](C(=O)O)C4)c(C)n3)nnn2C)no1` [Example 66] it was 7.82.
Regarding `Cc1nc(-c2nnn(C)c2CNc2noc(Cc3ccccc3)n2)ccc1O[C@H]1CCC[C@H](C(=O)O)C1` [Example 67], the pIC50 is 7.85.

As a reminder, the pIC50 is the IC50 on a negative log10 scale, so that one unit is a factor of ten.
